Measurements reported in patent publication US20210380556A1, “HETEROARYLAZOLE COMPOUND AND PEST CONTROL AGENT” (Nippon Soda Co., Ltd., priority 2018, published 2021).

system: Mythimna separata; test: Test Example 1: efficacy on Mythimna separata (treated artificial feed); assay type: in vivo; settings: 1 μl of emulsion (I) (5% active ingredient) in 0.8 g artificial feed; second instar larvae; 25° C.; fifth day
Text: 5 parts of the heteroaryl azole compound of the present invention, 93.6 parts of dimethylformamide, and 1.4 parts of polyoxyethylene alkyl aryl ether were mixed and dissolved to prepare emulsion (I) containing 5% of the active ingredient.
For a control, 98.5 parts of dimethylformamide and 1.5 parts of polyoxyethylene alkyl aryl ether were mixed and dissolved to prepare emulsion (II).
Insecticidal rate (%)=(The number of dead insects/The number of tested insects)×100
0.8 g of commercially available artificial feed (Insecta LFS, manufactured by Nosan Corp.) and 1 μl of the emulsion (I) were well mixed to obtain test feed.
A plastic test container (capacity: 1.4 ml) was packed with 0.2 g of the test feed per treatment plot. Then, two second instar larvae of Mythimna separata were inoculated to each treatment plot. A plastic lid was put on the test container so as to prevent escape of the second instar larvae of Mythimna separata. The container was placed in a thermostat chamber of 25° C. On the fifth day, the insecticidal rate and the food intake were examined. The test was conducted in duplicate.
The insecticidal rate and the food intake of a control plot were examined in the same way as in Test Example 1 except that the emulsion (I) was changed to the emulsion (II).

SMILES	insecticidal rate or food intake as compared with the control plot
CCS(=O)(=O)c1cnc(N)nc1-c1ncc(C(F)(F)C(F)(F)C(F)(F)C(F)(F)F)n1C [a-8]	insecticidal rate of 100% for Mythimna separata or a food intake of 10% or less
CCS(=O)(=O)c1cnc(OC)nc1-c1ncc(C(F)(F)C(F)(F)C(F)(F)C(F)(F)F)n1C [a-9]	insecticidal rate of 100% for Mythimna separata or a food intake of 10% or less
CCS(=O)(=O)c1cc(C2CC2)cnc1-c1ncc(C(F)(F)C(F)(F)C(F)(F)C(F)(F)F)n1C [b-1]	insecticidal rate of 100% for Mythimna separata or a food intake of 10% or less
CCSc1cccnc1-c1ncc(C(F)(F)C(F)(F)C(F)(F)C(F)(F)F)n1C [b-2]	insecticidal rate of 100% for Mythimna separata or a food intake of 10% or less
CCS(=O)(=O)c1cccnc1-c1ncc(C(F)(F)C(F)(F)C(F)(F)C(F)(F)F)n1C [b-3]	insecticidal rate of 100% for Mythimna separata or a food intake of 10% or less
CCS(=O)(=O)c1cc(C(F)(F)F)cnc1-c1ncc(C(F)(F)C(F)(F)C(F)(F)C(F)(F)F)n1C [b-7]	insecticidal rate of 100% for Mythimna separata or a food intake of 10% or less
CCS(=O)(=O)c1ccc(-n2cncn2)nc1-c1ncc(C(F)(F)C(F)(F)C(F)(F)C(F)(F)F)n1C [b-8]	insecticidal rate of 100% for Mythimna separata or a food intake of 10% or less
CCS(=O)(=O)c1ccc(-c2ncccn2)nc1-c1ncc(C(F)(F)C(F)(F)C(F)(F)C(F)(F)F)n1C [b-9]	insecticidal rate of 100% for Mythimna separata or a food intake of 10% or less
CCS(=O)(=O)c1ccc(-n2cncn2)nc1-c1ncc(C(F)C(F)(F)C(F)(F)C(F)(F)C(F)(F)F)n1C (stereo not drawn) [b-10]	insecticidal rate of 100% for Mythimna separata or a food intake of 10% or less
CCS(=O)(=O)c1cccnc1-c1ncc(C(F)C(F)(F)C(F)(F)C(F)(F)C(F)(F)F)n1C (stereo not drawn) [b-11]	insecticidal rate of 100% for Mythimna separata or a food intake of 10% or less
CCS(=O)(=O)c1ccc(N)nc1-c1ncc(C(F)(F)C(F)(F)C(F)(F)C(F)(F)F)n1C [b-12]	insecticidal rate of 100% for Mythimna separata or a food intake of 10% or less
CCS(=O)(=O)c1ccc(-n2cncn2)nc1-c1ncc(C(Cl)C(F)(F)C(F)(F)C(F)(F)C(F)(F)F)n1C (stereo not drawn) [b-13]	insecticidal rate of 100% for Mythimna separata or a food intake of 10% or less
CCS(=O)(=O)c1cc(C(F)(F)F)cnc1-c1ncc(C(F)(F)C(F)(F)C(F)(F)F)n1C [b-15]	insecticidal rate of 100% for Mythimna separata or a food intake of 10% or less
CCS(=O)(=O)c1ccc(-n2cncn2)nc1-c1ncc(C(F)(F)C(F)(F)C(F)(F)F)n1C [b-16]	insecticidal rate of 100% for Mythimna separata or a food intake of 10% or less
CCS(=O)(=O)c1ccc(-n2cncn2)nc1-c1ncc(C(F)(F)C(F)(F)F)n1C [b-17]	insecticidal rate of 100% for Mythimna separata or a food intake of 10% or less
CCS(=O)(=O)c1cc(C2CC2)cnc1-c1ncc(C(F)C(F)(F)C(F)(F)C(F)(F)F)n1C (stereo not drawn) [b-18]	insecticidal rate of 100% for Mythimna separata or a food intake of 10% or less
CCS(=O)(=O)c1cc(C2CC2)cnc1-c1ncc(C(F)(F)C(F)(F)C(F)(F)F)n1C [b-20]	insecticidal rate of 100% for Mythimna separata or a food intake of 10% or less

SMILES	insecticidal rate or food intake as compared with the control plot
CCS(=O)(=O)c1cc(-c2ncccn2)cnc1-c1ncc(C(F)(F)C(F)(F)F)n1C [b-22]	insecticidal rate of 100% for Mythimna separata or a food intake of 10% or less
CCS(=O)(=O)c1cc(Br)cnc1-c1ncc(C(F)C(F)(F)C(F)(F)F)n1C (stereo not drawn) [b-23]	insecticidal rate of 100% for Mythimna separata or a food intake of 10% or less
CCS(=O)(=O)c1cc(-c2ncccn2)cnc1-c1ncc(C(F)C(F)(F)C(F)(F)F)n1C (stereo not drawn) [b-24]	insecticidal rate of 100% for Mythimna separata or a food intake of 10% or less
CCS(=O)(=O)c1cc(C2CC2)cnc1-c1ncc(C(F)C(F)(F)C(F)(F)F)n1C (stereo not drawn) [b-25]	insecticidal rate of 100% for Mythimna separata or a food intake of 10% or less
CCS(=O)(=O)c1cc(C2CC2)cnc1-c1ncc(C(F)(F)C(F)(F)F)n1C [b-26]	insecticidal rate of 100% for Mythimna separata or a food intake of 10% or less
CCS(=O)(=O)c1cc(-c2ccccn2)cnc1-c1ncc(C(F)C(F)(F)C(F)(F)F)n1C (stereo not drawn) [b-27]	insecticidal rate of 100% for Mythimna separata or a food intake of 10% or less
CCS(=O)(=O)c1cc(-c2ccccn2)cnc1-c1ncc(C(F)(F)C(F)(F)C(F)(F)F)n1C [b-29]	insecticidal rate of 100% for Mythimna separata or a food intake of 10% or less
CCS(=O)(=O)c1cc(-c2ncccn2)cnc1-c1ncc(C(Cl)C(F)(F)C(F)(F)F)n1C (stereo not drawn) [b-32]	insecticidal rate of 100% for Mythimna separata or a food intake of 10% or less
CCS(=O)(=O)c1cc(-c2cc(F)cc(F)c2)cnc1-c1ncc(C(F)C(F)(F)C(F)(F)F)n1C (stereo not drawn) [b-34]	insecticidal rate of 100% for Mythimna separata or a food intake of 10% or less
CCS(=O)(=O)c1cc(-c2cncnc2)cnc1-c1ncc(C(F)C(F)(F)C(F)(F)F)n1C (stereo not drawn) [b-35]	insecticidal rate of 100% for Mythimna separata or a food intake of 10% or less
CCS(=O)(=O)c1cc(-n2ccc(C(F)(F)F)n2)cnc1-c1ncc(C(F)(F)C(F)(F)C(F)(F)F)n1C [b-36]	insecticidal rate of 100% for Mythimna separata or a food intake of 10% or less
C=Cc1cnc(-c2ncc(C(F)C(F)(F)C(F)(F)F)n2C)c(S(=O)(=O)CC)c1 (stereo not drawn) [b-39]	insecticidal rate of 100% for Mythimna separata or a food intake of 10% or less
CCS(=O)(=O)c1cc(NC(=O)C2CC2)cnc1-c1ncc(C(F)(F)C(F)(F)C(F)(F)F)n1C [b-41]	insecticidal rate of 100% for Mythimna separata or a food intake of 10% or less
CCS(=O)(=O)c1cc(C(C)(C)C#N)cnc1-c1ncc(C(F)(F)C(F)(F)C(F)(F)F)n1C [b-42]	insecticidal rate of 100% for Mythimna separata or a food intake of 10% or less
CCS(=O)(=O)c1cc(-c2ccccn2)cnc1-c1ncc(C(F)C(F)(C(F)(F)F)C(F)(F)F)n1C (stereo not drawn) [b-43]	insecticidal rate of 100% for Mythimna separata or a food intake of 10% or less
CCS(=O)(=O)c1cc(-c2ccccn2)cnc1-c1ncc(C(Cl)C(F)(C(F)(F)F)C(F)(F)F)n1C (stereo not drawn) [b-44]	insecticidal rate of 100% for Mythimna separata or a food intake of 10% or less
